In ChEMBL document CHEMBL4627346, “Ultrasound assisted rapid synthesis of mefenamic acid based indole derivatives under ligand free Cu-catalysis: Their pharmacological evaluation” (Bioorg Med Chem Lett, 2020):

Key:
[1] = biological target: T1, 3',5'-cyclic-AMP phosphodiesterase 4B (Homo sapiens, UniProt Q07343); assay: Inhibition of recombinant human PDE4B expressed in baculovirus infected Sf9 cells at 10 uM using [3H] cAMP as substrate after 30 min by scintillation proximity assay relative to control
T1 sequence (Q07343 whole entry): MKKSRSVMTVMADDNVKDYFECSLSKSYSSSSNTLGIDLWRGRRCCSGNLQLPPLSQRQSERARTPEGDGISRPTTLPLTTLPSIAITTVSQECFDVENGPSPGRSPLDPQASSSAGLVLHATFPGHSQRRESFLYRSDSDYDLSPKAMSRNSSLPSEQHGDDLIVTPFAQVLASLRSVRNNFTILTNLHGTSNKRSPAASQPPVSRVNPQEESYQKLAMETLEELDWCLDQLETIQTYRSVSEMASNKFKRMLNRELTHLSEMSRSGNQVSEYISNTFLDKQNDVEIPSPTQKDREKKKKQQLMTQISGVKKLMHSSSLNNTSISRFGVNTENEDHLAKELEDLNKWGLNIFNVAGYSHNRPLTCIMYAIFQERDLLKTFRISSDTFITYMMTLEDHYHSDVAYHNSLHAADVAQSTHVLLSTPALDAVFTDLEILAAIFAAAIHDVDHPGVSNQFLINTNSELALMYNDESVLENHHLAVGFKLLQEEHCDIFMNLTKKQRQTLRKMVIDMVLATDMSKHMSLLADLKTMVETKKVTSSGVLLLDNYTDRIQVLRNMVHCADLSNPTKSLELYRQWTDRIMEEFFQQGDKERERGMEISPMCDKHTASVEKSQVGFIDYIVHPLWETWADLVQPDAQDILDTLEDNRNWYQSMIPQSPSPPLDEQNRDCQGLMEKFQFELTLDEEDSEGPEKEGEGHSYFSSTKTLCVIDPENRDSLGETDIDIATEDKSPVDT

CAL-27 = assay: Antiproliferative activity against human CAL27 cells assessed as growth inhibition at 10 uM incubated for 72 hrs by sulforhodamine B assay; assay type: functional; conditions: CAL-27, 72 h, read-out: GI
[2] = biological target: T2, 3',5'-cyclic-AMP phosphodiesterase 4D (Homo sapiens, UniProt Q08499); assay: Inhibition of PDE4D2 (unknown origin) at 30 uM relative to control
T2 sequence (Q08499 whole entry): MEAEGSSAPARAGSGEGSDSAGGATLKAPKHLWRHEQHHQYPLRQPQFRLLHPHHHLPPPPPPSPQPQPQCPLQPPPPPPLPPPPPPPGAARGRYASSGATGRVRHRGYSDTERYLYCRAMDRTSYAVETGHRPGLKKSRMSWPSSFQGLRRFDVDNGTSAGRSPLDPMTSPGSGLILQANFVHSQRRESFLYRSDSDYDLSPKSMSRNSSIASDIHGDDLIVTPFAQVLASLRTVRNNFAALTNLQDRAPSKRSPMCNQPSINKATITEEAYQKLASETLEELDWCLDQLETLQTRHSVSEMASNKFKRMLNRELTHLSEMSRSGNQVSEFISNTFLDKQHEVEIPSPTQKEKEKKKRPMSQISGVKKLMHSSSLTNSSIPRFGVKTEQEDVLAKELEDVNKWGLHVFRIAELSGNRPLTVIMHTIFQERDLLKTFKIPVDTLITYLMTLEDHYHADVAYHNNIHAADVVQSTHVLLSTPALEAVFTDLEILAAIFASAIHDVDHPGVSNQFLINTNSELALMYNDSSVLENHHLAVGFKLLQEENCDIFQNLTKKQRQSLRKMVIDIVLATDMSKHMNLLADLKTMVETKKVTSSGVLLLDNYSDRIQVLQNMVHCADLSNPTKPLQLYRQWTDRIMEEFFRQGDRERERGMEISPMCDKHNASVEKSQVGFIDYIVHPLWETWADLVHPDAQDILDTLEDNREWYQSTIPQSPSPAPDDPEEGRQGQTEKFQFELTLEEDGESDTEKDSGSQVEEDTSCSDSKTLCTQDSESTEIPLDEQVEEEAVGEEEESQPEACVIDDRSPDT

[3] = biological target: T1, 3',5'-cyclic-AMP phosphodiesterase 4B; assay: Inhibition of recombinant human PDE4B expressed in baculovirus infected Sf9 cells using [3H] cAMP as substrate after 30 min by scintillation proximity assay
Homo sapiens = species on record: Homo sapiens; assay: Selectivity ratio of inhibition of PDE4D2 (unknown origin) to inhibition of recombinant human PDE4B expressed in baculovirus infected Sf9 cells using [3H] cAMP as substrate after 30 min
Phosphodiesterase 4 = Phosphodiesterase 4 (Homo sapiens, UniProt P27815+Q08499+Q07343+Q08493); assay: Inhibition of PDE4 (unknown origin) assessed as inhibition of TNF-alpha release; assay type: protein assay
[4] = Metabolic stability in rat liver microsomes assessed as parent compound remaining at 5 uM after 60 mins; assay type: ADME, Microsome; conditions: read-out: Stability
[5] = Half life in rat liver microsomes at 5 uM incubated for 60 mins; assay type: ADME, Microsome
[6] = Intrinsic clearance in rat liver microsomes at 5 uM after 60 mins; assay type: ADME, Microsome; conditions: read-out: CLH
[7] = biological target: T2, 3',5'-cyclic-AMP phosphodiesterase 4D; assay: Inhibition of PDE4D2 (unknown origin) at 10 uM relative to control
[8] = biological target: T2, 3',5'-cyclic-AMP phosphodiesterase 4D; assay: Inhibition of PDE4D2 (unknown origin) at 10 nM relative to control
[9] = biological target: T1, 3',5'-cyclic-AMP phosphodiesterase 4B; conditions: Sf9, 10 nM
Description: Inhibition of recombinant human PDE4B expressed in baculovirus infected Sf9 cells at 10 nM using [3H] cAMP as substrate after 30 min by scintillation proximity assay relative to control

SMILES | inhibition [1] | inhibition at 30 µM [2] | further results
CCc1ccc2c(c1)cc(COCc1ccccc1Nc1cccc(C)c1C)n2S(=O)(=O)c1ccc(C)cc1 | 32.1% | – | –
Cc1cccc(Nc2ccccc2COCc2cc3ccccc3n2S(C)(=O)=O)c1C | 61.5% | 40.9% | IC50 [3]: 1.76 µM
Cc1ccc(S(=O)(=O)n2c(COCc3ccccc3Nc3cccc(C)c3C)cc3cc(Br)ccc32)cc1 | 24.6% | – | –
Cc1ccc(S(=O)(=O)n2c(COCc3ccccc3Nc3cccc(C)c3C)cc3cc(Cl)ccc32)cc1 | 26.8% | – | –
Cc1ccc(S(=O)(=O)n2c(COCc3ccccc3Nc3cccc(C)c3C)cc3cc(F)ccc32)cc1 | 34.6% | – | –
Cc1ccc(S(=O)(=O)n2c(COCc3ccccc3Nc3cccc(C)c3C)cc3cc(C)ccc32)cc1 | 36.2% | – | –
Cc1ccc(S(=O)(=O)n2c(COCc3ccccc3Nc3cccc(C)c3C)cc3ccccc32)cc1 | 39.9% | – | –
O=C(Nc1c(Cl)cncc1Cl)c1ccc(OC(F)F)c(OCC2CC2)c1 [ROFLUMILAST] | – | – | inhibition at 0.01 µM [8]: 88.3%; inhibition [9]: 91.6%
Cc1cccc(Nc2ccccc2C(=O)O)c1C [MEFENAMIC ACID] | 38.9% | 35.5% | –

Continued, in another order:

inhibition [1] | inhibition at 30 µM [2] | SMILES | further results
23.1% | – | Cc1ccc(S(=O)(=O)n2c(COCc3ccccc3Nc3cccc(C)c3C)cc3cc(C)cc(C)c32)cc1 | –
68% | 42% | Cc1cccc(Nc2ccccc2COCc2cc3cc(F)ccc3n2S(C)(=O)=O)c1C | inhibition of growth at 10 µM (CAL-27): 55.6%; IC50 [3]: 1.34 µM; Selectivity ratio (Homo sapiens): 4.5; IC50 (Phosphodiesterase 4): 5.81 µM; inhibition (Phosphodiesterase 4): Dose-dependent effect; remaining at 1 h, 5 µM [4]: 64.9%; half-life at 5 µM [5]: 1.83 h; microsomal CLint at 5 µM [6]: 25.2 µL/min/mg; inhibition at 10 µM [7]: 15%
55.1% | 38.9% | Cc1ccc2c(c1)cc(COCc1ccccc1Nc1cccc(C)c1C)n2S(C)(=O)=O | IC50 [3]: 4.13 µM
40.4% | – | Cc1cccc(Nc2ccccc2COCc2cc3cc(Br)ccc3n2S(C)(=O)=O)c1C | –
37.3% | – | Cc1cc(C)c2c(c1)cc(COCc1ccccc1Nc1cccc(C)c1C)n2S(C)(=O)=O | –
54.9% | 33.6% | Cc1cccc(Nc2ccccc2COCc2cc3cc(Cl)ccc3n2S(C)(=O)=O)c1C | IC50 [3]: 4.48 µM
